Assay results: PMC10850913 (Heliyon, 2024)
Read-outs that look alike come from different tables or passages of the source.

What was measured:
[1] = tested on: castration-resistant prostate cancer (CRPC); conditions: patients with CRPC; cited from earlier work
[2] = tested on: HT-29 cell line; design: method as in PMID 31149165; conditions: 1000 μg/mL, MTT assay; cited from earlier work
[3] = Tissue distribution; type: in vivo; conditions: male, albino Wistar, rat, intravenous, 15 mg/kg, rats, 8 h after administration
Protocol: To assess the distribution and concentration of a medication within the body following delivery, tissue distribution studies were conducted. Twelve male albino Wistar rats were divided into two groups, each comprising six rats, following the approved institutional protocol by the Committee for the Purpose of Control and Supervision of Experiments on Animals (CPCSEA) (Ref. No.: SPTM/2022/IAEC/18).
The medications evaluated for tissue distribution were ENZ and the formulation ENZ-PLGA-PSAR-TPGS NPs. After administering the doses for 8 h, the rats were euthanized. Tissue samples, including liver, heart, kidney, lungs, brain, colon, small intestine, stomach, and rectum muscle tissues, were collected. Brain endothelial cells were obtained using a stereotaxic apparatus (USA, Model No. 51500). The collected tissue samples were homogenized in a cold physiological solution and filtered after rinsing with saline water (0.9 percent sodium chloride).
Subsequently, the samples were analyzed using RP-UHPLC (Dionex Ultimate, 3000) to determine the distribution and concentration of the medications in various tissues.

[4] = In vitro drug release (dialysis tube) and kinetic models; type: physicochemical; conditions: PBS pH 5.5, 37 °C
Protocol: We utilized a dialysis tube diffusion system to characterize the in vitro release of drugs from the formulations. This system provides a controlled environment to study the rate and extent of drug release from the formulations, reflecting their potential drug delivery behaviour. […] Tube was inserted into 50 mL of PBS (pH 5.5) with both ends tightened. In order to provide the sink conditions, PBS quantifying to 0.5 mL was added. Formulated medium was heated up to 37 ± 0.5 °C and stirred continuously at speed of 200 rpm. At predefined intervals, a 5 mL sample was taken, and an equal volume of new medium was introduced to keep the final volume, or sink condition, throughout experiment. All test samples were analyzed in triplicate manner and results are expressed as mean ± SD (n = 3).
To elucidate the kinetics and mechanisms governing drug release, we employed regression analysis to fit the experimental drug release data to various mathematical models. This analysis yielded coefficient constants that shed light on the order of release and the underlying mechanisms involved. (See Supportive Information for further details).

[5] = cited from earlier work
[6] = Pharmacokinetics after intravenous administration; type: in vivo, male Albino Wistar rats; conditions: rats, 15 mg/kg intravenously
Protocol: In accordance with the ethical approval (SPTM/2022/IAEC/18), nine male Albino Wistar rats weighing between 200 and 250 g were divided into three groups (n = 3) for proper conduct of pharmacokinetic experiments.
Blood samples (500 μL) were collected from the rats' tail veins into heparinized tubes and cold centrifuged at 13,500 rpm for 10 min at 4 °C to separate plasma from blood. Subsequently, 100 μL of the separated plasma was mixed with 200 μL of acetonitrile, vortexed for 3 min to extract proteins, and cold centrifuged again at 13,500 rpm for 5 min at 4 °C.
The supernatant was then diluted with methanol, passed through a membrane filter, and subjected to analysis using a High-Performance Liquid Chromatography (HPLC) system. Isocratic elution was performed with a mobile phase consisting of a 20 mM ammonium acetate buffer and acetonitrile in a 60:40 ratio, at a flow rate of 1.0 mL/min, utilizing a C18 column.

[7] = tested on: HCT116 cells; test: Wound healing (scratch) assay; type: cell-based; conditions: HCT-116, after 48 h, compared to control
Protocol: The following day, a scratch was made in the cell monolayer using a 200 μl tip, and the cells were subsequently treated with the specified concentration of the formulation. Photographs were taken at various time intervals ranging from 0 to 48 h.
The gap area resulting from the scratch was analyzed using Image J Software (NCBI) and was further presented in a graphical format to illustrate the changes over time.

[8] = tested on: HCT116 cells; test: Cell cycle analysis (PI, flow cytometry); type: cell-based; conditions: HCT116, IC50 concentration, 24 h
Protocol: Following the incubation period, cells were harvested using trypsin and collected in a 1.5 ml tube. After a single wash with 500 μl of chilled PBS, approximately 1 x 10^6 cells were suspended in 100 μl of PBS. The cell suspension was gently vortexed to achieve a mono-dispersed cell suspension with minimal aggregation. Subsequently, the cells were fixed by transferring this suspension with a pipette into centrifuge tubes containing 900 μl of 70 % ethanol, placed on ice, and then incubated for a minimum of 2 h at 4 °C. The fixed cells could be stored in 70 % ethanol at 4 °C for several weeks.
After fixation, the cells were centrifuged, and the pellet was suspended in 500 μl of Propidium Iodide (PI) staining solution (0.1 % (v/v) Triton X-100, 10 μg/ml PI, and 100 μg/ml DNase-free RNaseA in PBS). This suspension was kept in the dark at room temperature for 30 min or at 37 °C for 10 min. The samples were then acquired on a flow cytometer.

[9] = tested on: platelets; test: Platelet aggregation study; type: cell-based, rats; conditions: blood incubated 2 h, Leishman-stained slides
Protocol: A 1 mL blood sample was collected in heparinized tubes to prevent coagulation. […] The platelet aggregation was then examined both quantitatively and qualitatively. The qualitative analysis was conducted through microscopic examination of stained blood smears. Blood smears were prepared on clean glass slides after the 2-h incubation period. The slides were air-dried and subsequently stained with Leishman's stain for 5 min (Span Diagnostics, India). Following the staining, the slides were rinsed with distilled water, and a cover glass was placed on each slide for visualization under an optical microscope using an immersion objective. Images were captured using a digital camera.
As a control, whole blood incubated with an equivalent volume of PBS was used as the spontaneous control.

[10] = tested on: HCT116 cells; test: Cellular apoptosis (Annexin V FITC/PI flow cytometry); type: cell-based; conditions: HCT116, IC50 dose
Protocol: HCT116 cell lines were seeded, cultured and subjected up to IC-50 dose of compound. Subsequent to treatment, cells underwent two washes with cold PBS. Resuspended cells were placed in 1X binding buffer at a concentration of 1x10^6 cells/ml, and the cells were divided into distinct groups, namely Unstained cells, Control group, Annexin only, PI only, and Treatment. Following the division into labelled tubes, Annexin V FITC and PI were introduced to their respective tubes. After vortexing and an incubation period of 15 min at room temperature, 1X Binding buffer was added to each tube. Subsequently, the samples were analyzed by a Flow Cytometer within 1 h.

[11] = tested on: HCT116 cells; test: Mitochondrial membrane potential estimation (JC-1 flow cytometry); type: cell-based; conditions: HCT-116, IC50 dose, 24 h
Protocol: After the incubation period, the medium was aspirated, and cells were harvested using trypsin EDTA. The harvested cells were collected in a 1.5 ml tube and subjected to a single wash with 500 μl of chilled PBS. Subsequently, the cell pellets were resuspended in 400 μl of JC1 staining buffer containing 2 μM JC-1 dye. The samples were then promptly acquired using a Flow Cytometer within a 1-h timeframe.

[12] = tested on: erythrocytes; test: Haemolysis study; type: cell-based, male albino rats; conditions: rat erythrocytes, 100 μg/ml
Protocol: For […] control identification, Triton X-100 treatment was employed. A 4 mL blood sample was drawn from male albino rats (220g) using a 23-gauge needle from the lateral saphenous vein of the animal (SPTM/2022/IAEC/18). The blood sample was then centrifuged at 1344×g for 10 min, and the plasma layer was carefully removed. The erythrocytes were washed three times with saline water and incubated with a 100 μg/mL concentration of the samples at 37 °C. Samples of 200 μL each were collected at 0, 1–10 h and centrifuged at 1344×g for 10 min.
During the incubation, hemoglobin transformed into oxyhemoglobin. The obtained erythrocytes were observed under a microscope, and absorbance readings were taken at 570 nm for different concentrations of samples. All test samples were analyzed in triplicate, and the results are expressed as mean ± SD (n = 3). The percentage of hemolysis can be calculated using the following equation.

[13] = male, Albino Wistar, rat, plasma, iv

## CNC(=O)c1ccc(N2C(=S)N(c3ccc(C#N)c(C(F)(F)F)c3)C(=O)C2(C)C)cc1F [ENZ, Enzalutamide]
[1]
  extension of survival: 4.8 months
[2]
  cell viability: significant decrease
[3]; brain, read-out: Concentration in Brain
  concentration at 8 h: 0.7 ± 0.1 ng/mL
[3]; colon, read-out: Concentration in Colon
  concentration at 8 h: 0.95 ± 0.5 ng/mL
[3]; heart, read-out: Concentration in Heart
  concentration at 8 h: 0.8 ± 1.1 ng/mL
[3]; kidney, read-out: Concentration in Kidney
  concentration at 8 h: 0.57 ± 0.21 ng/mL
[3]; liver, read-out: Concentration in Liver
  concentration at 8 h: 1.2 ± 0.13 ng/mL
[3]; lungs, read-out: Concentration in Lungs
  concentration at 8 h: 0.5 ± 0.102 ng/mL
[3]; rectum, read-out: Concentration in Rectum
  concentration at 8 h: 3.07 ± 0.4 ng/mL
[3]; spleen, read-out: Concentration in Spleen
  concentration at 8 h: 0.3 ± 0.1 ng/mL
[3]; stomach, read-out: Concentration in Stomach
  concentration at 8 h: 0.21 ± 0.12 ng/mL
[4]
  pattern of release: poor
[5]
  pKa: 4.16
[6]; [13]
  MRT: 5.34 ± 2.43 h
  Vd: 1.4 ± 0.00356 L
  clearance: 1.51 mL/min
[6]
  C: 226.24 ± 31.2 ng/mL
[7]
  inhibition of wound area: inhibited the wound area
[8]
  cells in G1 phase: 49.6%
  cells in G2 (G2/M) phase: 14.5%
[9]
  platelet aggregation: no aggregation
[10]
  early apoptosis (lower right quadrant): 2.7%
  late apoptosis (upper right quadrant): 10.1%
  live cells (lower left quadrant): 72.6%
[11]
  High MMP cells: 3.5%
  live cells in MMP assay: 52.7%
  low MMP cells: 41.7%
[12]
  lysis of RBCs (microscopy): no occurrence of eruption or lysis of the RBCs
